Measured values as given in patent publication US20060223073A1, “Methods of using a DNase I-like enzyme” (priority 2005, published 2006).

Target: bovine pancreatic DNase I (Bos taurus, UniProt P00639)
Conditions: for reduction of enzyme activity induced by the addition of salt: 100 mM sodium chloride added to reaction with 40% (v/v) alcohol (FIG. 2); for DNase I activity, % of Standard conditions: alcohol at 40% (v/v) in the Standard reaction, without sodium chloride (FIG. 2)
Description: The enzymatic hydrolysis of calf thymus genomic DNA was assayed using a method modified from that described by Desai and Shankar (Eur. J. Biochem., 2000; 267: 5123-5135). The standard reaction mixture was 0.1 mL volume, containing 30 μg of sonicated native calf thymus genomic DNA (Sigma, St. Louis Mo., #D-3664), in a buffer solution composed of 100 mM Tris HCl(pH 8.0)/10 mM MgSO4/1 mM CaCl2, with appropriately diluted DNase I (usually 0.02-1.0 Enzyme Units, as defined below). The reaction was initiated by the addition of enzyme, with incubation at room temperature for a defined period of time (usually 10-20 minutes), after which the reaction was terminated by rapid sequential addition of 0.1 mL of 1 mg/mL Bovine Serum Albumin (Sigma, #A3803) and 1.0 mL of ice cold 2% (v/v) Perchloric Acid. The terminated reaction mixture was vortex mixed, then chilled on ice for 20-30 minutes, follwed by centrifugation at 16,000×g for 10 minutes at 4 degrees centrigrade. The clarified supernatant contains acid-soluble oligonucleotides liberated by the action of DNase I-like activity, at concentrations determined using absorbance measurements determined in a 1 cm pathlength cell in the Agilent 8453 spectrophotometer (Agilent Technologies, Wilmington Del.). A molar extinction coefficient of 10,000 M^−1cm^−1 was employed for oligonucleotide concentration estimation in the acidic solution. Unit activity under these assay conditions is defined as umol of acid-soluble oligonucleotides generated per minute at 25 degrees centigrade. In the experiments shown in the examples that follow, bovine pancreatic DNase I is employed to illustrate the effects of various manipulations on the activity of this enzyme. Typically, the reaction employs approximately 0.1 enzyme units, as defined by the Kunitz assay, as discussed above (see Kunitz. J. Gen. Physiol. 1950; 33:349-362).
Bovine pancreatic DNase I (Fermentas, #EN0523) was assayed for gDNA hydrolytic activity, as described above, using the Standard reaction conditions, but modified by the inclusion of various quantities of iso-propanol (i-propanol, 2-propanol), with or without the further inclusion of sodium chloride at 100 mM.

bovine pancreatic DNase I, sequence (P00639 23-282): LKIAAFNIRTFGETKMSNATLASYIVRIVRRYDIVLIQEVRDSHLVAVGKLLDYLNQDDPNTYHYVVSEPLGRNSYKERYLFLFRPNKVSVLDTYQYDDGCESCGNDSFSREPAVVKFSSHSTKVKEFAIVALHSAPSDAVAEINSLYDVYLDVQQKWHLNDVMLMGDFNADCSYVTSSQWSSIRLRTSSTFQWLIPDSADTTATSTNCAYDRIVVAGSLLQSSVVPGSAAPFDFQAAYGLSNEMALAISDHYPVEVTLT

For `CCO` [Ethanol], which “reduction of enzyme activity induced by the addition of salt” value is on record?
Its value is “three-fold reduction”.

What about the “DNase I activity, % of Standard conditions” value of the same compound?
The value was 40%.

For n-propanol, which “DNase I activity, % of Standard conditions” value is on record?
Its value is “about 10%”.

And the “DNase I activity, % of Standard reaction conditions” value (alcohol at 40% (v/v) plus 100 mM sodium chloride (FIG. 2))?
Its value is “less than 5%”.

With `CC(C)O` [i-propanol, iso-propanol] as the compound, how does the “reduction of enzyme activity induced by the addition of salt” value read?
Its value is “least prevented the inhibition of the enzyme by salt”.

What about the “DNase I activity, % of the Standard activity level” value (20% i-propanol added to solution containing 100 mM sodium chloride (FIG. 1)) of the same compound?
Its value is 101%.

What about the “DNase I activity relative to standard conditions” value (20% i-propanol, no sodium chloride, room temperature (FIG. 1)) of the same compound?
The value was “more than doubling the activity”.

What about the “DNase I activity, % of Standard conditions” value of the same compound?
Its value is 40%.

What about the “DNase I enzyme activity observed” value (high salt (100 mM sodium chloride) and high alcohol content (FIG. 1)) of the same compound?
The value was “greater than 50%”.

And the “DNase I activity, % of the standard condition” value (higher concentrations of i-propanol (above 20%, up to and above 80%), no sodium chloride (FIG. 1))?
The value was “about 50%”.
